The target of assay [1] is T1, tyrosine decarboxylase (TyrDC) (Enterococcus faecalis, UniProt P0DTQ4).
T1 sequence (P0DTQ4 1-620): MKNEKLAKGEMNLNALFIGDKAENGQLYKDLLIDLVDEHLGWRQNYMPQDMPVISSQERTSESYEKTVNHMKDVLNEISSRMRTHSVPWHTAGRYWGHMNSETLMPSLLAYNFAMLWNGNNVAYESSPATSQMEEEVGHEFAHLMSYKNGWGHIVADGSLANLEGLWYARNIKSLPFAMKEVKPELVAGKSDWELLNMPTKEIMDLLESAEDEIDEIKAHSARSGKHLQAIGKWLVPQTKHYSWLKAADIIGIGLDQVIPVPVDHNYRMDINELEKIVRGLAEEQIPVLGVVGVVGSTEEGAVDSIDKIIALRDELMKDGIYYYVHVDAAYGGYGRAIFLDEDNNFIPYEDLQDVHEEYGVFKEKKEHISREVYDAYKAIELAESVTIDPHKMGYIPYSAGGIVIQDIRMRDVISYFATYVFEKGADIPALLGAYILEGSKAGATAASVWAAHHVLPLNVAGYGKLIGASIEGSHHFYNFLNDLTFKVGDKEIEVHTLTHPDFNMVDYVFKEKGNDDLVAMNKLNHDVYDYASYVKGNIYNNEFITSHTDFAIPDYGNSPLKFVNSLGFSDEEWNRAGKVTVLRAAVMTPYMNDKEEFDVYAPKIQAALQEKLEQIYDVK

Assay [2] has as its target T1, tyrosine decarboxylase (TyrDC). The experiment in a line: enzyme kinetics of TyrDC in vitro. Type of assay: biochemical.

Structures are written as SMILES.

For orientation: Km means the substrate concentration at which the rate is half of its maximum.

`N[C@@H](Cc1ccc(O)c(O)c1)C(=O)O` [L-dopa]: the Km in assay [1] is 1500 µM.

As to `N[C@@H](Cc1ccc(O)cc1)C(=O)O` [L-tyrosine], the “enzyme kinetics of TyrDC in vitro” value in assay [2] is on record as “In vitro characterization of TyrDC revealed a fivefold higher catalytic efficiency toward L-tyrosine compared with L-dopa”.

For the origin of these results see paper PMC7745125 (Science (New York, N.y.), 2019).
